Data published in US9637491B2, “Pyrazolo[4,3-D]pyrimidines as kinase inhibitors” (Origenis GmbH, priority 2012, dated 2017).

Molecular target: T1, SYK kinase (Homo sapiens, UniProt P43405)
T1 construct: purchased Invitrogen, Carlsbad
Assay: SYK assay (OMNIA Kinase Assay, Invitrogen)
Assay type: biochemical
Conditions: SYK Activities; 1 mM ATP, 10 μM Omnia Peptide Substrate Tyr 7, 30° C.
Description: In the assay OMNIA® KINASE ASSAY by Invitrogen Corporation (Carlsbad) the effect of invention of a compound on the phosphorylation is determined by measurement of fluorescence intensity of a chelation-enhanced fluorophore called SOX. Upon phosphorylation of the peptide by the kinase of interest, Mg2+ is chelated to form a bridge between the SOX moiety and the phosphate group that is transferred to the specific tyrosine on the peptide. The fluorescence intensity is directly proportional to the amount of peptide phosphorylation.
To the wells of an 384 well small volume plate (Greiner, Frickenhausen) are added (i) the compound under test in 5% DMSO/distilled water (2 μl), (ii) 16 μl of the master mix containing ATP, DTT, Kinase Reaction Buffer, Omina Peptide Substrate Tyr 7 resulting in a final concentration of 1 mM ATP, 0.2 mM DTT and 10 μM Peptide Substrate. The Master Mix and the assay plate was incubated to reaction temperature before the measurement (30° C.). The reaction was started with addition of (iii) 2 μl 4 μg/ml SYK kinase (Invitrogen, Carlsbad). During measurement fluorescence intensitiy readings were collected using a TECAN M1000 at a wavelength of λex 360/λem 485 nm every 30 s for 30 minutes. The reaction velocity was plotted versus the inhibitor concentration to determine the IC50 using XLFit 5.0 (IDBS, Guildford) to fit to a sigmoidal dose response curve.

Row | Compound | IC50 [nM]
1 | CC(C)(C)N1CCN(c2ccc(Nc3nc(-c4cocn4)nc4cn[nH]c34)cc2)CC1 [Example 49, N-(4-(4-(tert-butyl)piperazin-1-yl)phenyl)-5-(oxazol-4-yl)-1H-pyrazolo[4,3-d]pyrimidin-7-amine] | 10 to 100
2 | CC(=O)N1CCN(c2ccc(Nc3nc(-c4ccc5cn[nH]c5c4)nc4cn[nH]c34)cc2)CC1 [Example 50, 1-(4-(4-((5-(1H-indazol-6-yl)-1H-pyrazolo[4,3-d]pyrimidin-7-yl)amino)phenyl)piperazin-1-yl)ethan-1-one] | < 10
3 | COc1ccc(Nc2nc(-c3sccc3C)nc3cn[nH]c23)cc1OC [Example 51, N-(3,4-dimethoxyphenyl)-5-(3-methylthiophen-2-yl)-1H-pyrazolo[4,3-d]pyrimidin-7-amine] | 10 to 100
4 | Cc1ccsc1-c1nc(Nc2ccc(N3CCOCC3)cc2)c2[nH]ncc2n1 [Example 52, 5-(3-methylthiophen-2-yl)-N-(4-morpholinophenyl)-1H-pyrazolo[4,3-d]pyrimidin-7-amine] | 10 to 100
5 | CN1CCN(C2CCN(C(=O)c3ccc(Nc4nc(C5CC5)nc5cn[nH]c45)cc3)CC2)CC1 [Example 53, (4-((5-cyclopropyl-1H-pyrazolo[4,3-d]pyrimidin-7-yl)amino)phenyl)(4-(4-methylpiperazin-1-yl)piperidin-1-yl)methanone] | 100 to 1000
6 | COc1cc(Nc2nc(-c3ccc4cn[nH]c4c3)nc3cn[nH]c23)ccc1N1CCOCC1 [Example 54, 5-(1H-indazol-6-yl)-N-(3-methoxy-4-morpholinophenyl)-1H-pyrazolo[4,3-d]pyrimidin-7-amine] | < 10
7 | c1cc(N2CCNCC2)ccc1Nc1nc(C2CC2)nc2cn[nH]c12 [Example 55, 5-cyclopropyl-N-(4-(piperazin-1-yl)phenyl)-1H-pyrazolo[4,3-d]pyrimidin-7-amine] | 100 to 1000
8 | CC(=O)N1CCN(c2ccc(Nc3nc(-c4ccno4)nc4cn[nH]c34)cc2)CC1 [Example 67, 1-(4-(4-((5-(isoxazol-5-yl)-1H-pyrazolo[4,3-d]pyrimidin-7-yl)amino)phenyl)piperazin-1-yl)ethan-1-one] | 100 to 1000
9 | COc1ccc(Nc2nc(-c3ccno3)nc3cn[nH]c23)cc1OC [Example 68, N-(3,4-dimethoxyphenyl)-5-(isoxazol-5-yl)-1H-pyrazolo[4,3-d]pyrimidin-7-amine] | 100 to 1000
10 | c1cc(-c2nc(Nc3ccc(N4CCOCC4)cc3)c3[nH]ncc3n2)on1 [Example 69, 5-(isoxazol-5-yl)-N-(4-morpholinophenyl)-1H-pyrazolo[4,3-d]pyrimidin-7-amine] | < 10
11 | Fc1cc(Nc2nc(-c3ccno3)nc3cn[nH]c23)ccc1N1CCOCC1 [Example 70, N-(3-fluoro-4-morpholinophenyl)-5-(isoxazol-5-yl)-1H-pyrazolo[4,3-d]pyrimidin-7-amine] | 100 to 1000
12 | COc1cc(Nc2nc(-c3ccno3)nc3cn[nH]c23)ccc1N1CCOCC1 [Example 71, 5-(isoxazol-5-yl)-N-(3-methoxy-4-morpholinophenyl)-1H-pyrazolo[4,3-d]pyrimidin-7-amine] | 100 to 1000
13 | CC(=O)N1CCN(c2ccc(Nc3nc(-c4ccon4)nc4cn[nH]c34)cc2)CC1 [Example 72, 1-(4-(4-((5-(isoxazol-3-yl)-1H-pyrazolo[4,3-d]pyrimidin-7-yl)amino)phenyl)piperazin-1-yl)ethan-1-one] | 100 to 1000
14 | COc1ccc(Nc2nc(-c3ccon3)nc3cn[nH]c23)cc1OC [Example 73, N-(3,4-dimethoxyphenyl)-5-(isoxazol-3-yl)-1H-pyrazolo[4,3-d]pyrimidin-7-amine] | 100 to 1000
15 | c1cc(-c2nc(Nc3ccc(N4CCOCC4)cc3)c3[nH]ncc3n2)no1 [Example 74, 5-(isoxazol-3-yl)-N-(4-morpholinophenyl)-1H-pyrazolo[4,3-d]pyrimidin-7-amine] | 100 to 1000
16 | Fc1cc(Nc2nc(-c3ccon3)nc3cn[nH]c23)ccc1N1CCOCC1 [Example 75, N-(3-fluoro-4-morpholinophenyl)-5-(isoxazol-3-yl)-1H-pyrazolo[4,3-d]pyrimidin-7-amine] | 100 to 1000
17 | COc1cc(Nc2nc(-c3ccon3)nc3cn[nH]c23)ccc1N1CCOCC1 [Example 76, 5-(isoxazol-3-yl)-N-(3-methoxy-4-morpholinophenyl)-1H-pyrazolo[4,3-d]pyrimidin-7-amine] | 100 to 1000
18 | Fc1cc2cn[nH]c2cc1-c1nc(Nc2ccc(N3CCOCC3)cc2)c2[nH]ncc2n1 [Example 77, 5-(5-fluoro-1H-indazol-6-yl)-N-(4-morpholinophenyl)-1H-pyrazolo[4,3-d]pyrimidin-7-amine] | 10 to 100
19 | COc1ccc(Nc2nc(C3CCOC3)nc3cn[nH]c23)cc1OC (stereo not shown) [Example 80, N-(3,4-dimethoxyphenyl)-5-(tetrahydrofuran-3-yl)-1H-pyrazolo[4,3-d]pyrimidin-7-amine] | 100 to 1000

Row | Compound | IC50 [nM]
20 | c1cc(N2CCOCC2)ccc1Nc1nc(C2COCCO2)nc2cn[nH]c12 (stereo not shown) [Example 84, 5-(1,4-dioxan-2-yl)-N-(4-morpholinophenyl)-1H-pyrazolo[4,3-d]pyrimidin-7-amine] | 100 to 1000
21 | N#Cc1cc(Nc2nc(-c3ccc4cn[nH]c4c3)nc3cn[nH]c23)ccc1N1CCOCC1 [Example 85, 5-((5-(1H-indazol-6-yl)-1H-pyrazolo[4,3-d]pyrimidin-7-yl)amino)-2-morpholinobenzonitrile] | 10 to 100
22 | c1coc(-c2nc(Nc3ccc(N4CCOCC4)cc3)c3[nH]ncc3n2)c1 [Example 86, 5-(furan-2-yl)-N-(4-morpholinophenyl)-1H-pyrazolo[4,3-d]pyrimidin-7-amine] | 10 to 100
23 | COc1ccc(Nc2nc(-c3ccco3)nc3cn[nH]c23)cc1OC [Example 87, N-(3,4-dimethoxyphenyl)-5-(furan-2-yl)-1H-pyrazolo[4,3-d]pyrimidin-7-amine] | 10 to 100
24 | c1cc(-c2nc(Nc3ccc(N4CCOCC4)cc3)c3[nH]ncc3n2)co1 [Example 94, 5-(furan-3-yl)-N-(4-morpholinophenyl)-1H-pyrazolo[4,3-d]pyrimidin-7-amine] | 10 to 100
25 | COc1ccc(Nc2nc(-c3ccoc3)nc3cn[nH]c23)cc1OC [Example 95, N-(3,4-dimethoxyphenyl)-5-(furan-3-yl)-1H-pyrazolo[4,3-d]pyrimidin-7-amine] | 100 to 1000
26 | CC(=O)N1CCN(c2ccc(Nc3nc(-c4ccoc4)nc4cn[nH]c34)cc2)CC1 [Example 96, 1-(4-(4-((5-(furan-3-yl)-1H-pyrazolo[4,3-d]pyrimidin-7-yl)amino)phenyl)piperazin-1-yl)ethan-1-one] | 10 to 100
27 | CC(C)(C)N1CCN(c2ccc(Nc3nc(-c4ccoc4)nc4cn[nH]c34)cc2)CC1 [Example 97, N-(4-(4-(tert-butyl)piperazin-1-yl)phenyl)-5-(furan-3-yl)-1H-pyrazolo[4,3-d]pyrimidin-7-amine] | 10 to 100
28 | O=C1OCCN1c1ccc(Nc2nc(-c3ccoc3)nc3cn[nH]c23)cc1 [Example 98] | 100 to 1000
29 | CC1(c2nc(Nc3ccc(N4CCOCC4)cc3)c3[nH]ncc3n2)CC1 [Example 99, 5-(1-methylcyclopropyl)-N-(4-morpholinophenyl)-1H-pyrazolo[4,3-d]pyrimidin-7-amine] | 100 to 1000
30 | CC(=O)N1CCN(c2ccc(Nc3nc(C4(C)CC4)nc4cn[nH]c34)cc2)CC1 [Example 100, 1-(4-(4-((5-(1-methylcyclopropyl)-1H-pyrazolo[4,3-d]pyrimidin-7-yl)amino)phenyl)piperazin-1-yl)ethan-1-one] | 100 to 1000
31 | CC1CC1c1nc(Nc2ccc(N3CCOCC3)cc2)c2[nH]ncc2n1 (stereo not shown) [Example 101, 5-(2-methylcyclopropyl)-N-(4-morpholinophenyl)-1H-pyrazolo[4,3-d]pyrimidin-7-amine] | 10 to 100
32 | CC(=O)N1CCN(c2ccc(Nc3nc(C4CC4C)nc4cn[nH]c34)cc2)CC1 (stereo not shown) [Example 102, 1-(4-(4-((5-(2-methylcyclopropyl)-1H-pyrazolo[4,3-d]pyrimidin-7-yl)amino)phenyl)piperazin-1-yl)ethan-1-one] | 100 to 1000
33 | CC1CC1c1nc(Nc2cnn(C3CCOCC3)c2)c2[nH]ncc2n1 (stereo not shown) [Example 103, 5-(2-methylcyclopropyl)-N-(1-(tetrahydro-2H-pyran-4-yl)-1H-pyrazol-4-yl)-1H-pyrazolo[4,3-d]pyrimidin-7-amine] | 100 to 1000
34 | O=C1CCCc2ccc(Nc3nc(-c4ccoc4)nc4cn[nH]c34)cc2N1 [Example 107, 8-((5-(furan-3-yl)-1H-pyrazolo[4,3-d]pyrimidin-7-yl)amino)-4,5-dihydro-1H-benzo[b]azepin-2(3H)-one] | 10 to 100
35 | CN1CCN(c2ccc(Nc3nc(-c4ccoc4)nc4cn[nH]c34)cn2)CC1 [Example 108, 5-(furan-3-yl)-N-(6-(4-methylpiperazin-1-yl)pyridin-3-yl)-1H-pyrazolo[4,3-d]pyrimidin-7-amine] | 100 to 1000
36 | c1cc(-c2nc(Nc3cnn(C4CCOCC4)c3)c3[nH]ncc3n2)co1 [Example 110, 5-(furan-3-yl)-N-(1-(tetrahydro-2H-pyran-4-yl)-1H-pyrazol-4-yl)-1H-pyrazolo[4,3-d]pyrimidin-7-amine] | 10 to 100
37 | CC(=O)N1CCN(c2ccc(Nc3nc(-c4ccco4)nc4cn[nH]c34)cc2)CC1 [Example 111, 1-(4-(4-((5-(furan-2-yl)-1H-pyrazolo[4,3-d]pyrimidin-7-yl)amino)phenyl)piperazin-1-yl)ethan-1-one] | 10 to 100
